Laboratory results from ChEMBL document CHEMBL1221365, “Evelynin, a cytotoxic benzoquinone-type Retro-dihydrochalcone from Tacca chantrieri” (J Nat Prod, 2010).
pIC50: −log10 of the molar value. The source made the active and inactive calls. No cut-off for these calls is given here.

Columns and labels:
MDA-MB-231 = assay: Cytotoxicity against human MDA-MB-231 cells after 48 hrs by sulforhodamine B assay; format: functional, cell-based; conditions: MDA-MB-231, 48 h
HeLa [1] = assay: Cytotoxicity against human HeLa cells after 48 hrs by sulforhodamine B assay; format: functional, cell-based
HeLa [2] = assay: Inhibition of beta-tubulin assembly in human HeLa cells assessed as effect on microtubule density at 5 uM after 18 hrs by immunofluorescence assay; format: cell-based
PC-3 = assay: Cytotoxicity against human PC3 cells after 48 hrs by sulforhodamine B assay; format: functional, cell-based; conditions: PC-3, 48 h
HeLa [3] = assay: Inhibition of beta-tubulin assembly in human HeLa cells assessed as effect on microtubule density up to 40 uM after 18 hrs by immunofluorescence assay; format: cell-based
MDA-MB-435 = assay: Cytotoxicity against human MDA-MB-435 cells after 48 hrs by sulforhodamine B assay; format: functional, cell-based; conditions: MDA-MB-435, 48 h

Q: Which results are given for `COC1=CC(=O)C(CCC(=O)c2ccc(OC)c(OC)c2)=C(OC)C1=O` [EVELYNIN]?
A: pIC50 (MDA-MB-231): 5.41; pIC50 (HeLa [1]): 5.20; inhibition (HeLa [2]): inactive; pIC50 (PC-3): 5.33; inhibition (HeLa [3]): inactive; pIC50 (MDA-MB-435): 5.39
